Data taken from PubChem BioAssay AID1159563 (GlaxoSmithKline (GSK), 2015).
Activity calls are given as the source filed them. No rule for the calls is given here.

The molecules below were run on HepG2 cytotoxicity (assay: HepG2 cell cytotoxicity, cytotoxicity control (AID 1159563)).
In the case of `O=C(Nc1nc(-c2ccc(F)cc2)cs1)c1ccc([N+](=O)[O-])s1`, the IC50 is reported as 13 µM. For `O=C(Nc1ccc(Br)cn1)c1ccc(Cn2cnc([N+](=O)[O-])n2)cc1`, the IC50 was > 100 µM (inactive). `O=C(NCc1ccc(-n2cccc2)cc1)c1nc(Cn2ccc([N+](=O)[O-])n2)no1` was tested, and the IC50 was > 100 µM (inactive). With `Cc1nn(-c2nc3ccccc3s2)c2c1C(c1ccc(OCC(N)=O)cc1)SCC(=O)N2` (centres undefined) the IC50 was > 100 µM (inactive). Work on `CS(=O)(=O)NC1CCC(Oc2cc3cnccc3cc2-c2ccsc2)CC1` (centres undefined) yielded an IC50 of 63 µM. In the case of `COc1ccc2ncc(=O)n(CCN3CCC(NCc4ccc(-c5cccs5)cc4)CC3)c2n1`, the IC50 is reported as 13 µM. In the case of `C=CCn1nc([N+](=O)[O-])nc1Oc1ccc(Cl)cc1Cl`, the IC50 is reported as > 100 µM (inactive). `CCc1ccccc1[C@@H](C)NC(=O)c1cnc2c(cnn2CC)c1NC1CCN(C(N)=O)CC1` was tested, and the IC50 was > 100 µM (inactive). `CCC1Oc2cc(S(=O)(=O)N(C)CC(=O)N3CCc4ccccc4C3)c(C)cc2NC1=O` (centres undefined) was tested, and the IC50 was > 100 µM (inactive). In the case of `Oc1cccnc1-c1n[nH]c(Cc2ccccc2)n1`, the IC50 is reported as 79 µM. For `COc1ccc([N+](=O)[O-])cc1NC(=O)Nc1cccc(Cl)c1`, the IC50 was > 100 µM (inactive). Work on `O=C(NCC1CCCCC1)c1cnns1` yielded an IC50 of 40 µM. `NCC(Cc1ccccc1)NC(=O)c1cnc(-c2c[nH]c3ncccc23)s1` (centres undefined) showed an IC50 of 79 µM. `CN(Cc1ccccc1)Cc1nnnn1C1CCN(Cc2ccc(-n3ccnc3)cc2)CC1` was tested, and the IC50 was > 100 µM (inactive). `O=C(NC1CCN(C2Cc3ccc(NS(=O)(=O)c4cc(F)cc(F)c4)cc3C2)CC1)C1CC1` (centres undefined) was tested, and the IC50 was > 100 µM (inactive). In the case of `O=C(NNC(=O)c1ccccn1)c1ccc(-c2ccccc2)cc1`, the IC50 is reported as > 100 µM (inactive). In the case of `Cc1ccc(S(=O)(=O)Cn2nnnc2C(c2cccnc2)N2CCN(c3ccccc3)CC2)cc1` (centres undefined), the IC50 is reported as > 100 µM (inactive). In the case of `O=C(NC1C(=O)N(c2ccccc2)C1c1cccnc1)c1ccc(Cl)s1` (centres undefined), the IC50 is reported as > 100 µM (inactive). `Cc1ccnc(NS(=O)(=O)c2ccc(NC(=O)c3ccc([N+](=O)[O-])s3)cc2)n1` was tested, and the IC50 was 16 µM. Work on `N#Cc1ccc(Br)cc1[N+](=O)[O-]` yielded an IC50 of 20 µM. `N#Cc1ccccc1S(=O)(=O)N1CCN(C(=O)CNC(=O)c2ccc3c(c2)OCO3)CC1` was tested, and the IC50 was > 100 µM (inactive). In the case of `Nc1ncnc2c1ncn2[C@@H]1O[C@H](CO)C[C@H]1O`, the IC50 is reported as > 100 µM (inactive). For `c1ccc2c(CCOc3nccnc3-c3ccncc3)c[nH]c2c1`, the IC50 was > 100 µM (inactive). In the case of `COc1ccc(Cc2nc(-c3ncc4cccnc4c3O)n[nH]2)cc1OC`, the IC50 is reported as 50 µM. In the case of `O=C(CN(c1cccc(C(F)(F)F)c1)S(=O)(=O)c1ccc(Cl)cc1)NCc1ccc(F)c(F)c1`, the IC50 is reported as > 100 µM (inactive). Work on `COc1ccc2ncc(F)c(CCN3CC[C@@H](NC(=O)c4cc5c(s4)CCC5)[C@@H](O)C3)c2n1` yielded an IC50 of 50 µM. For `Nc1nccc(-c2csc(Nc3ccc(Cl)cc3)n2)n1`, the IC50 was > 100 µM (inactive). In the case of `CC(CNS(=O)(=O)c1ccc(OC(F)F)cc1)c1ccc(NC(=O)c2ccncc2)cc1` (centres undefined), the IC50 is reported as 100 µM. Molecule `CN(C)CCN(C)Cc1ccc(F)cc1NS(=O)(=O)c1ccc(Cl)c(Cl)c1` has an IC50 of 40 µM. For `COc1ccc2c(Cl)c(C(=O)N3CCC3)sc2c1Cl`, the IC50 was > 100 µM (inactive). `CS(=O)(=O)c1ccc(Nc2nccc(Nc3n[nH]c4ccc(F)cc34)n2)c(F)c1` gave an IC50 of 79 µM. With `O=C(Nc1ccc(C(F)(F)F)cc1)NC1(C(=O)NCc2ccco2)CCCCC1` the IC50 was > 100 µM (inactive). `CCOc1ccc(N(C)S(=O)(=O)c2ccc3[nH]cc(C(=O)NC4CCCC4)c(=O)c3c2)cc1` showed an IC50 of 50 µM. With `CCCCNc1nccc(-c2c(-c3ccc(F)cc3)nn3c(N4CCOCC4)cccc23)n1` the IC50 was > 100 µM (inactive). Molecule `Clc1ccc(OCCN2CCCCC2c2cccnc2)c(Cl)c1` (centres undefined) has an IC50 of 79 µM. With `COc1ccc(-c2cnc(C)o2)cc1S(=O)(=O)Nc1ccc(C)cc1C` the IC50 was > 100 µM (inactive). For `O=C(NCCc1ccn(-c2ccccc2)n1)C1CCCCC1`, the IC50 was > 100 µM (inactive). For `CC1CCCCN1C(=O)NCCc1coc(-c2ccc(F)cc2)n1` (centres undefined), the IC50 was > 100 µM (inactive). For `COc1ccc(-c2ccc3nnc(-c4ccc(O)c(OC)c4)n3c2)cn1`, the IC50 was > 100 µM (inactive).
